Results: patent US20240041042A1, “1-(PYRIDYL)-5-AZINYLPYRAZOLE DERIVATIVES, AND THEIR USE FOR CONTROL OF UNDESIRED PLANT GROWTH” (Bayer Aktiengesellschaft, priority 2020, published 2024)
Like-named read-outs stand apart in the source and are kept apart here.

Tests used:
Type in all cases: in vivo
[1] = tested on: Pharbitis purpurea (PHBPU); assay: Post-emergence herbicidal action against PHBPU; details: dosage 320 g/ha
In short: (§1)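 Rates were 320 g/ha or below, applied as aqueous WP/EC spray with 0.5% additive (600 l/ha) onto one-leaf-stage plants. About 3 weeks later in the greenhouse, damage was scored visually against untreated plants on a 0–100% scale, where 100% means plants died.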

Oryza sativa (ORYSA) [2] = details: crop plant compatibility
In short: (§2)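 Foliar application at the one-leaf stage: WP/EC formulation, 0.5% additive, 600 l/ha water. Greenhouse-grown in sandy loam. Endpoint is visual % injury relative to untreated controls at about 3 weeks.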

Zea mays (ZEAMX) [3] = details: crop plant compatibility, effect vs untreated controls
In short: as §2

[4] = tested on: Triticum aestivum (TRZAS); details: crop plant compatibility, 80 g/ha, effect vs untreated controls
In short: as §2

Oryza sativa (ORYSA) [5] = details: pre-emergence, crop plant compatibility, in comparison to untreated controls
In short: (§3)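 Scoring: visual, % of untreated control, about 3 weeks after a pre-emergence application to the soil surface. Application used WP or EC formulations diluted in water with 0.5% additive at 600 l/ha; dosage levels are marked by suffixes a, b and c.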

Zea mays (ZEAMX) [6] = details: pre-emergence, crop plant compatibility, in comparison to untreated controls
In short: as §3

Glycine max (GLXMA) = details: pre-emergence, crop plant compatibility, in comparison to untreated controls
In short: as §3

Brassica napus (BRSNW) = details: crop plant compatibility, in comparison to untreated controls
In short: as §3

[7] = tested on: Echinochloa crus-galli (ECHCG); assay: Post-emergence herbicidal action against ECHCG; details: dosage 320 g/ha
In short: as §1

Lolium rigidum (LOLRI) [8] = assay: Post-emergence herbicidal action against LOLRI; details: dosage 320 g/ha
In short: as §1

Setaria viridis (SETVI) [9] = assay: Post-emergence herbicidal action against SETVI; details: dosage 320 g/ha
In short: as §1

[10] = tested on: Amaranthus retroflexus (AMARE); assay: Post-emergence herbicidal action against AMARE; details: 320 g/ha, visual rating about 3 weeks after treatment
In short: as §1

[11] = tested on: Digitaria sanguinalis (DIGSA); assay: Pre-emergence herbicidal action against DIGSA; details: dosage 320 g/ha
In short: (§4)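 Pre-emergence soil-surface spray of compound, formulated as wettable powder or emulsion concentrate, in aqueous suspension or emulsion with 0.5% additive (600 l/ha; rate 320 g/ha or less). Activity rated visually after roughly 3 weeks in the greenhouse as a percentage of untreated controls, 0% meaning no difference.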

Viola tricolor (VIOTR) [12] = assay: Post-emergence herbicidal action against VIOTR; details: 80 g/ha
In short: as §1

Avena fatua (AVEFA) = assay: Pre-emergence herbicidal action against AVEFA; details: 320 g/ha, visual scoring after about 3 weeks vs untreated controls
In short: as §4

Viola tricolor (VIOTR) [13] = assay: Pre-emergence herbicidal action against VIOTR
In short: as §4

Lolium rigidum (LOLRI) [14] = assay: Pre-emergence herbicidal action against LOLRI; details: dosage 320 g/ha
In short: as §4

Setaria viridis (SETVI) [15] = assay: Pre-emergence herbicidal action against SETVI; details: dosage 320 g/ha
In short: as §4

[16] = tested on: Alopecurus myosuroides (ALOMY); assay: Pre-emergence herbicidal action against ALOMY; details: 320 g/ha; scored visually after about 3 weeks; 100% = plants have died
In short: as §4

[17] = tested on: Verconica persica (VERPE); assay: Pre-emergence herbicidal action against VERPE; details: dosage 320 g/ha
In short: as §4

[18] = tested on: Amaranthus retroflexus (AMARE); assay: Pre-emergence herbicidal action against AMARE; details: 320 g/ha, visual scoring after about 3 weeks vs untreated controls
In short: as §4

[19] = 80 g/ha, effect in comparison to untreated controls
[20] = 320 g/ha, effect in comparison to untreated controls

Compound	Post-emergence action against PHBPU in % [1]	Post-emergence action against ORYSA in % (Oryza sativa (ORYSA) [2]; [19])	Post-emergence action against ORYSA in % (Oryza sativa (ORYSA) [2]; [20])	Post-emergence action against ZEAMX in % (Zea mays (ZEAMX) [3]; 80 g/ha)	Post-emergence action against ZEAMX in % (Zea mays (ZEAMX) [3]; 320 g/ha)	Post-emergence action against TRZAS in % [4]	Pre-emergence action against ORYSA in % (Oryza sativa (ORYSA) [5]; 80 g/ha)	Pre-emergence action against ORYSA in % (Oryza sativa (ORYSA) [5]; 320 g/ha)	Pre-emergence action against ZEAMX in % (Zea mays (ZEAMX) [6]; 80 g/ha)	Pre-emergence action against ZEAMX in % (Zea mays (ZEAMX) [6]; 320 g/ha)	Pre-emergence action against GLXMA in % (Glycine max (GLXMA); 80 g/ha)	Pre-emergence action against BRSNW in % (Brassica napus (BRSNW); 80 g/ha)	Pre-emergence action against BRSNW in % (Brassica napus (BRSNW); 320 g/ha)	other results
COc1cccnc1-n1nc(OCC(=O)O)c(Cl)c1-c1ccc(F)nc1 [Example I-329]	80%	0%	0%	0%	0%	0%	0%	20%	0%	10%	0%	0%		
COc1cccnc1-n1nc(OCC(=O)O)c(Br)c1-c1ccc(F)nc1 [Example I-363]	80%	0%	0%	0%	0%	0%			0%	0%	0%	0%	20%	Post-emergence action against ECHCG in % [7]: 80%; Pre-emergence action against GLXMA in % (Glycine max (GLXMA); 320 g/ha): 0%
CCOC(=O)COc1nn(-c2ncccc2OC)c(-c2ccc(F)nc2)c1Br [Example I-371]	80%	0%	0%	20%	20%	20%	0%	0%	0%	10%	20%	0%	20%	Post-emergence action against LOLRI in % (Lolium rigidum (LOLRI) [8]): 90%; Post-emergence action against SETVI in % (Setaria viridis (SETVI) [9]): 80%; Post-emergence action against AMARE in % [10]: 80%
COC(=O)[C@@H](C)Oc1nn(-c2cccnc2F)c(-c2ccc(F)nc2)c1Br [II-36]		0%					0%		20%		0%	0%		Pre-emergence action against DIGSA in % [11]: 100%; Post-emergence action against VIOTR in % (Viola tricolor (VIOTR) [12]): 80%; Pre-emergence action against AVEFA in % (Avena fatua (AVEFA)): 80%; Pre-emergence action against VIOTR in % (Viola tricolor (VIOTR) [13]; 320 g/ha, Viola tricolor): 100%; Pre-emergence action against VIOTR in % (Viola tricolor (VIOTR) [13]; dosage 80 g/ha): 80%; Pre-emergence action against LOLRI in % (Lolium rigidum (LOLRI) [14]): 80%; Pre-emergence action against SETVI in % (Setaria viridis (SETVI) [15]): 80%; Pre-emergence action against ALOMY [16]: 100%; Pre-emergence action against VERPE in % [17]: 80%; Post-emergence action against ORYSA in % (Oryza sativa (ORYSA) [2]; 20 g/ha, effect vs untreated controls): 0%; Pre-emergence action against AMARE in % [18]: 100%
